System: total aerobic population
Assay: Total aerobic plate count of washed, packaged and stored mushrooms
From the text: Mushrooms were either 1) untreated (unwashed), that is, left as picked; 2) sodium metabisulfite (sulfite treated) washed. Mushrooms were water rinsed with tap water for 2 seconds then processed through 2 consecutive dip tanks containing 500 ppm sodium metabisulfite in solution; or 3) Washed using the herein disclosed process (new wash) specifically as follows: Mushrooms were conveyed on a slotted conveyor belt and sprayed with tap water for 2 seconds. They dropped into a series of two dip tanks containing 3% (w/v) sodium erythorbate, 0.15% (w/v) disodium EDTA, 0.15% (w/v) calcium chloride. Total residence time was 30 seconds. The whole mushrooms were then treated by dipping in water containing 2 ppm ozone (15 second exposure) followed immediately by 10 second exposure to ultraviolet lamp. Half of the mushroom were sliced and again exposed to 10 seconds of ultraviolet lamp. The mushrooms were packaged and stored at either 35, 45 or 55 degrees Fahrenheit and analyzed microbiologically at day 0, 3, 6, and 9 for total aerobic plate count with a sensitivity of 1,000 cfu/gram, and day 3,6 and 9 for organoleptic properties including degree of whiteness, amount of veil opening, and overall salability/quality. Storage at 45 and 55 degrees Fahrenheit represent physiologically stressful conditions and will illustrate benefits of treatments to a greater extent than 35 degree F. storage. For all examples, data was analyzed statistically using single factor ANOVA and Student's T-test preparing two groups and assuming equal variances. All data was analyzed at 95% confidence levels. Mushrooms were either 1) Mushrooms were washed with water (2-3 second drench with tap water) then processed through 2 consecutive dip tanks containing an aqueous solution of 500 ppm sodium metabisulfite (sulfite treated); or 2) Washed using the herein disclosed process (new wash) specifically as follows: Mushrooms were conveyed on a slotted conveyor belt and sprayed with tap water for […]. They dropped into a series of two dip tanks containing 3% (w/v) sodium erythorbate, 0.15% (w/v) disodium EDTA, 0.15% (w/v) calcium chloride. Total residence time was 30 seconds. The whole mushrooms were then treated with 2 ppm ozone spray followed by 10 second exposure to ultraviolet lamp. Half of the mushroom were sliced and again exposed to 10 seconds of ultraviolet lamp. The mushrooms were packaged and stored at either 35, 45 or 55 degrees Fahrenheit. 35 degree F. stored samples were analyzed at day 0, 2, 6, and 9 and 14 for total aerobic plate count. Both 35 and 45 degree F. stored samples were analyzed on day 2, 6, 9 and 14 for organoleptic properties including degree of whiteness, amount of veil opening, and overall salability/quality. Storage at 45 degrees Fahrenheit represent physiologically stressful conditions and will illustrate benefits of treatments to a greater extent than 35 degree F. storage. Mushrooms were either 1) untreated (unwashed), that is, left as picked; 2)sodium metabisulfite (sulfite treated) washed. Mushrooms were water rinsed with tap water for 5 seconds then processed through 2 consecutive dip tanks containing 500 ppm sodium metabisulfite; or 3)Washed using the herein disclosed process (new wash) specifically as follows: Mushrooms were conveyed on a slotted conveyor belt and sprayed with tap water for 2 seconds. They dropped into a series of two dip tanks containing 3% (w/v) sodium erythorbate, 0.3% (w/v) sodium chloride, 0.3% (w/v) calcium chloride. Total residence time was 30 seconds. In the third treatment (new wash 1) the whole mushrooms were then treated with 2 ppm ozone spray followed immediately by 10 second exposure to ultraviolet lamp. New wash 2 mushrooms were treated as described above but was treated only with ozone, no ultraviolet light. New wash 3 mushrooms were treated with 7 seconds of ultraviolet light, no ozone. New wash 4 mushrooms were treated with ozone and ultraviolet light simultaneously. […]

What does the source list for `O=S([O-])S(=O)(=O)[O-].[Na+].[Na+]` [sulfite treated, sodium metabisulfite]?
Total plate count (Experiment 1, 35 degrees Fahrenheit, sliced, Day 0): 178,805 cfu/g; Total plate count (Experiment 1, 35 degrees Fahrenheit, sliced, Day 3): 12,344,021 cfu/g; Total plate count (Experiment 1, 35 degrees Fahrenheit, sliced, Day 6): 31345339 cfu/g; Total plate count (Experiment 1, 35 degrees Fahrenheit, sliced, Day 9): 383205051 cfu/g; Total plate count (Experiment 1, 35 degrees Fahrenheit, whole, Day 0): 299,999 cfu/g; Total plate count (Experiment 1, 35 degrees Fahrenheit, whole, Day 3): 3,849,234 cfu/g; Total plate count (Experiment 1, 35 degrees Fahrenheit, whole, Day 6): 20709887 cfu/g; Total plate count (Experiment 1, 35 degrees Fahrenheit, whole, Day 9): 31562526 cfu/g; Total plate count (Experiment 1, 45 degrees Fahrenheit, sliced, Day 3): 69,673,049 cfu/g; Total plate count (Experiment 1, 45 degrees Fahrenheit, whole, Day 3): 216,318,555 cfu/g; Total plate count (Experiment 1, 55 degrees Fahrenheit, sliced, Day 3): 381,362,639 cfu/g; Total plate count (Experiment 1, 55 degrees Fahrenheit, whole, Day 3): 145,637,959 cfu/g; Total plate count (Experiment 2, 35 degrees Fahrenheit, sliced, Day 0): 168,922 cfu/g; Total plate count (Experiment 2, 35 degrees Fahrenheit, sliced, Day 2): 736,188 cfu/g; Total plate count (Experiment 2, 35 degrees Fahrenheit, sliced, Day 6): 6,101,012 cfu/g; Total plate count (Experiment 2, 35 degrees Fahrenheit, sliced, Day 9): 7,976,377 cfu/g; Total plate count (Experiment 2, 35 degrees Fahrenheit, sliced, Day 14): 702,413,006 cfu/g; Total plate count (Experiment 2, 35 degrees Fahrenheit, whole, Day 0): 24,188 cfu/g; Total plate count (Experiment 2, 35 degrees Fahrenheit, whole, Day 2): 59,492 cfu/g; Total plate count (Experiment 2, 35 degrees Fahrenheit, whole, Day 6): 428,579 cfu/g; Total plate count (Experiment 2, 35 degrees Fahrenheit, whole, Day 9): 734,285 cfu/g; Total plate count (Experiment 2, 35 degrees Fahrenheit, whole, Day 14): 253,940,711 cfu/g; Total Plate Count Sliced (Experiment 3, sliced, within 18 hours of processing): 918,987 cfu/gram; Total Plate Count Whole (Experiment 3, whole, within 18 hours of processing): 352,745 cfu/gram
